The results in this text go back to patent publication US7763708B2, “Methods and compositions for modulating C5-a-mediated inflammatory responses” (Institute for Protein Science Co., Ltd., priority 2004, dated 2010).

Several values for one entry are separate records, joined by “and”; a condition that tells them apart may be missing. Identical values can stand only once. Entries after “also recorded” stand apart in the source; their conditions may differ.

Assay [1] deals with Rat Lethal Shock Model (C5a-mediated). The assay can be described thus: Rat lethal shock induced by anti-Crry antibody following LPS priming. The class given is in vivo. The following applies: 4 mg/kg i.v. 10 min before anti-Crry mAb. The method, then:
Administration of anti-rat Crry mAb (5I2) (Takizawa et al., J. Immunol. 152:3032, 1994) induces lethal shock in rats primed with a trace amount of lipopolysaccharide (LPS) (Matsuo et al., J. Exp. Med. 180:1619, 1994; Mizuno et al., J. Immunol. 162:5477, 1999). With this model, all rats sensitized with 0.05 mg/kg of LPS died within 30 min of injection of mAb 512. Male Wistar rats weighing about 250 g were purchased from Chubu Kagaku Shizai (Nagoya, Japan) and were allowed free access to food and water. Each rat was injected with 0.05 mg/kg of LPS, prepared from a phenol extraction of Salmonella typhosa (Sigma Chemical Co., St. Louis, Mo.) in 250 μl saline. Then, 0.75 mg/kg of 5I2 was administered 20 h later. Ten minutes before the injection of 5I2, saline or C-peptides in saline were injected. All injections were intravenously administered through the tail vein. Animal experiments were carried out according to Nagoya City University Guideline for the Care and Use of Experimental Animals and approved by the Nagoya City University Graduate School of Medical Sciences Animal Care Committee.
Administration of 0.75 mg/kg anti-rat Crry monoclonal antibody (Takizawa et al., J. Immunol. 152:3032, 1994) induces rapid lethal shock in rats primed with 0.05 mg/kg of LPS 20 h earlier (Matsuo et al., J. Exp. Med. 180:1619, 1994; Mizuno et al., J. Immunol. 162:5477, 1999). […] In order to investigate the inhibitory effect of the C-peptides in this model, we injected rats with saline (for the control) or C-peptides in 250 μl of saline 10 min before the 5I2 injection. All rats injected with saline died within 30 min (Table 1). However, all rats injected with 4 mg/kg of Pep-A survived. […] Some of the surviving rats stopped breathing briefly in the first 1 or 2 min after injection of 5I2, but were soon breathing again and about 20-40 min later began moving.

Assay [2] has as its system TGW human neuroblastoma cells bearing C5aR. The assay can be described thus: Patch clamp measurement of inward ion current pulses induced by PL37-MAP. The conditions noted are these: 500 nM PL37-MAP, 50 μM C-peptide. The assay is classed as cell-based. As to the method:
The measurements were carried out on TGW human neuroblastoma cells bearing C5aR. Cells were voltage-clamped at room temperature at a holding potential of −70 mV using a whole cell clamp configuration. The instruments used for electrophysiology were as follows: an Axopatch 200-A patch clamp amplifier, a Digidata-1200 data acquisition system and pCLAMP 6.02 software from Axon Instruments Inc., (Foster City, Calif.). The head stage of the amplifier was fitted to an MHW-3 hydraulic manipulator manufactured by Narishige Inc. (Tokyo, Japan); and the cells were visualized using an Olympus IMT-2 invert microscope. Data acquisition and analysis were performed using an IBM compatible personal computer. Patch electrodes (OD=1.5 mm, thin wall, Garner Glass Co., Claremont, Calif.) were pulled with a PP-83 puller and polished with an MF-83 microforge (Narishige Inc). The resistance of patch electrodes was 8-10 MΩ. The solutions used were as follows: an extracellular solution (10 mM Hepes, 140 mM NaCl, 5 mM KCI, 2 mM CaCl2, 2 mM MgCl2, 10 mM glucose, pH=7.34) and an intracellular pipette solution (10 mM Hepes, 110 mM KCl, 15 mM NaCl, 0.1 mM CaCl2, 2 mM MgCl2, 1 mM EGTA, pH 7.25). […]
Inward calcium current pulses detected by a patch clamp assay were evoked when TGW cells were exposed to 500 nM PL37-MAP (FIG. 2a). […]
(In general: In patch-clamp work, channel activity is measured electrically.)

ASTAPARAGLPRLPKFF [Pep-B]: in assay [1], the “Survival rate (%)” value is 0%; the “Surviving/total number of rats” value is “died and 0/4”. Also, in assay [2], the “Inhibition of inward ion current pulse evoked by PL37-MAP” value is on record as “did not have any effect; also recorded: did not block”.
